Series [1] addresses purified L. tarentolae tubulin (Leishmania tarentolae, UniProt A0A640KCM0+A0A640KQN0). The series can be described thus: Chemical cross-linking competition with SW223022 probe. The conditions noted are these: 100-fold excess of competitor. In kind it is binding.
Series [2] relates to L. amazonensis axenic amastigotes. The series can be described thus: alamarBlue viability / concentration-response assay, axenic amastigotes. In kind it is cell-based, Leishmania amazonensis. The method, then: (§1) Leishmania amazonensis axenic amastigotes (100 μL, 2×10^6 cells/mL) were added to 96-multiwell plates containing 100 μL of amastigote culture medium with an appropriate compound dilution series. 0.1% DMSO (no drug) served as a positive control (100%), and 5 μM amphotericin B served as a negative growth control (0%). Only internal wells were used to minimize edge effects from evaporation. Axenic amastigotes were incubated at 32° C. with a compound/drug for 72 h prior to measurement. Similarly, the cytotoxicity of each compound was determined against RAW 264.7 cells and HepG2 cell lines, following 72 h incubation at 37° C. (promastigotes at 26° C.).
(§2) 10% alamarBlue® (Thermo Fisher Scientific) was used to measure the growth of both parasite and mammalian cells. Conversion from a blue oxidized state to a pink reduced state was assessed visually at 6 hr. The fluorescence signal was measured with a BioTek Synergy H1 plate reader (530 nm excitation, 570 nm emission). For bioluminescence assays using L. amazonensisluc, relative luminescence units (RLU) were measured using Britelite Plus (PerkinElmer, USA). Luminescence produced by this luciferase reaction is proportional to the amount of luciferase-expressing, viable L. amazonensisluc. Following five-minute incubation at room temperature, the luminescence was measured with a BioTek Synergy H1 plate reader.
All experiments were conducted as three technical triplicates on the same plate, with at least three independent biological repeats of each plate performed. For all assays, percent growth was expressed as a proportion of the untreated (positive) control (i.e. 100%) and plotted against drug/compound concentration. The concentration was then log10 transformed and EC50 values were determined using nonlinear regression (sigmoidal dose-response/variable slope equation) in GraphPad Prism v5.0 (GraphPad Software, Inc., San Diego, CA).
To identify antileishmanial compounds, a microplate-based alamarBlue® assay was used to quickly triage the 400 drug-like compounds available in the MMV Pathogen Box collection. […] A three-step process was used to screen the Pathogen Box: 1) identify hits against axenic amastigotes, 2) confirm the inhibitory concentrations of these hits against axenic amastigotes, 3) evaluate hits for potency against intracellular parasites using fluorescence and bioluminescence-based intracellular assays. The MMV Pathogen Box resource was tested at two concentrations (5 μM and 1 μM, 72 h endpoint) on axenic amastigotes.
Hits were defined as compounds that, at a concentration of 1 μM, decreased the relative fluorescence intensity signal to ≤70% of that produced by parasites incubated in vehicle (0.06% DMSO) only (FIG. 9).
A general note: Resazurin is reduced to fluorescent resorufin, in cell work by metabolically active cells.

For series [3], the system named is blood-stage P. falciparum (3D7 strain). The series can be described thus: Malaria SYBR green I fluorescence (MSF) assay. In kind it is cell-based, Plasmodium falciparum. As to conditions: 3D7 strain. As to the method: For other parasites, L. donovani, strain MHOM/SD/62/1S-C12D, was grown as previously described. Plasmodium falciparum parasites of the 3D7 strain were cultured in RPMI 1640 medium supplemented with 37.5 mM HEPES, 10 mM D-glucose, 2 mM L-glutamine, 100 μM hypoxanthine, 25 μg/mL gentamicin, 4% (v/v) human serum and 0.25% (v/v) Albumax II, at a 2% haematocrit in an atmosphere of 1% 02, 3% CO2 and 96% N2. Staging and parasitemia of the in vitro culture were assessed by light microscopy of Giemsa-stained thin blood smears.
Compounds were tested against the blood-stage Trypanosoma brucei (48 hr endpoint) and intra-erythrocytic asexual stages Plasmodium falciparum (3D7) using CellTiter-Glo® luminescent and Malaria SYBR green I fluorescence (MSF) assays, respectively. Similar methodology will be used for future experiments.
MMV676477 was tested against several other parasites: the axenic amastigotes of Leishmania donovani and Leishmania tarentolae, blood-stage Plasmodium falciparum, and Trypanosoma brucei. The compound's activity was measured using alamarBlue®, Malaria SYBR green I fluorescence (MSF) and CellTiter-Glo® luminescent assays. […] In addition, MMV676477 has also been recently reported as having potent activity against Neospora caninum, Cryptosporidium parvum, Toxoplasma gondii, and Entamoeba histolytica.

The next series can be described thus: Cytotoxicity, alamarBlue. In kind it is cell-based. The conditions noted are these: mouse, RAW 264.7 macrophage cells, read-out: CC50^72 h cytotoxicity (macrophage / mammalian cells). As to the method:
as §1
as §2, with “reader. […]” for “reader.”

The test system of series [4] is intracellular L. amazonensis amastigotes. The series can be described thus: Intramacrophage bioluminescence assay with luciferase-expressing L. amazonensis. In kind it is cell-based, Leishmania amazonensis. As to the method: Intracellular EC50s were estimated with L. amazonensisluc parasites. Briefly, RAW 264.7 cells or BM primary Mϕs were starved overnight, then infected with metacyclic promastigotes at a Multiplicity of Infection (MOI) of 15 and incubated for another 24 h at 37° C. The plates containing infected RAW 264.7 cells/BM primary M4s were washed five times with serum-free DMEM. Serially diluted compounds were added, and plates were incubated at 37° C. for 72 hrs. Bioluminescence signal was measured as described above.
RAW 264.7 cells were used to perform a bioluminescence assay with transgenic luciferase-expressing L. amazonensis (FIG. 1C).

In series [5] the test system is L. amazonensis promastigotes and amastigotes. The series can be described thus: Microscopic analysis of cell division. In kind it is cell-based, Leishmania amazonensis. The conditions noted are these: 48 h at EC50^72 h. As to the method:
(§3) Promastigotes or amastigotes were treated with the indicated compound concentrations and allowed to adhere to poly-L-lysine coated plates. All cells were fixed with 4% paraformaldehyde and permeabilized/blocked with 0.01% Triton X-100 and 2% BSA in PBS. Promastigotes and amastigotes were incubated with mouse anti-gp46 or anti-p8, respectively at 1:50 or 1:1000 and rat anti-alpha-tubulin antibody at 1:1000. Samples were then probed with A568 anti-mouse and […] secondary antibodies (Molecular Probes). DNA was labeled with Hoescht. Samples were visualized on a Zeiss LSM 880 Inverted confocal Airyscan microscope at 63×; full Z-thicknesses through parasites were obtained. […] For microscopic analysis of mitotic arrest, at least 200 parasites were analyzed per condition per experiment after 48 hrs incubation at compounds' EC50, and the average plus standard error for three experiments was calculated. Representative images were selected from the maximal intensity projections and linearly processed in Adobe Photoshop CS6.
The molecular target of MMV676477 was investigated.

Series [6] shares this test system. The series can be described thus: Tubulin intensity by confocal immunofluorescence microscopy. In kind it is cell-based, Leishmania amazonensis. As to conditions: 24 h at EC50^72 h. The method, then:
as §3
One reason why MMV676477 might affect parasite cell division is that, like paclitaxel, it might affect microtubule polymerization, either directly or indirectly. The degree to which MMV676477 affected microtubules polymerization in cells was examined. […] Centrifugation of these extracts allowed separation of insoluble polymeric (pellet) and soluble dimeric (supernatant) tubulin. […] The intensity of α-tubulin staining was examined by normalizing it to the intensity of a membrane protein (gp46 for promastigotes in FIG. 4D; p8 for amastigotes in FIG. 4E).

The test system of series [7] is intracellular L. amazonensis amastigotes. Nature of the series: Intracellular washout assay (LD50). In kind it is cell-based, Leishmania amazonensis. The method, then: Intracellular LD50s were measured. Briefly, RAW 264.7 cells were seeded to 96-multiwell plates at a density of 2×10^5 cells/mL (200 μL) and starved overnight at 37° C. The cells were infected with metacyclic promastigotes at a Multiplicity of Infection (MOI) of 15 and incubated for another 24 h at 37° C. The plates containing infected RAW 264.7 cells/BM primary M #s were washed five times with serum-free DMEM. Serially diluted compounds were added, and plates were incubated at 37° C. for 72 hrs. Wells were washed five times with DMEM, and the RAW 264.7 cells were lysed with 100 μL of 2 mg/mL saponin in DMEM for 5 min at room temperature, and further lysis was stopped with 100% FBS. After centrifugation, 200 μL acidic promastigotes media was replaced, plates were incubated at 26° C. for 96 h. Fluorescence intensity (alamarBlue®) was measured as described above.
All routine in vitro quantification of antileishmanial drug potency is quantification of “cytostatic” potency. […] Therefore, the cytocidal action of MMV676477 was quantified by obtaining an LD50 at 72 h (a Lethal Dose that kills 50% of the bulk population of the parasites relative to untreated control) and compared it to the known cytocidal drug amphotericin. An intracellular washout assay was employed. […] The ratio of LD50:EC50 was calculated for MMV676477 and amphotericin. Lower ratios indicate that the LD50 is similar to the EC50 value, meaning that the estimated EC50 values represent killing of the parasites rather than simple growth inhibition.

Where [8] appears, read: Leishmania amazonensis, 72 h, axenic amastigotes; read-out: EC50^72 h against L. amazonensis axenic amastigotes.
Setting [9] is: Pathogen Box screen, 1 μM, 72 h.

“Also recorded” adds a separate entry of the source. Like-named read-outs stand apart in the source and are kept apart here.

Broadly, the EC50 is the concentration at which the effect is half-maximal.

As to `CSc1ccccc1C(=O)Oc1cc(C)nc(-n2nc(C)cc2N)n1` [SW10], the “competition with SW223022 probe (fluorescent tubulin band)” value (shortened to “competition with SW223022 probe”) in series [1] was “No apparent competition”.
For `C#CCOc1ccc(C(=O)c2ccc(C(=O)Nc3cc(C)nn3-c3nc(C)c(CC)c(=O)[nH]3)cc2)cc1` [SW223022, N-(1-(5-Ethyl-4-methyl-6-oxo-1,6-dihydropyrimidin-2-yl)-3-methyl-1H-pyrazol-5-yl)-4-(4-(prop-2-yn-1-yloxy)benzoyl)benzamide], the EC50 in series [2] (72 h, axenic amastigotes; read-out: EC50^72 h against L. amazonensis axenic amastigotes) came out at 156 nM; in series [2] (setting [8]), 160 nM.
Regarding `CCc1c(C)nc(-n2nc(C)cc2NC(C)=O)[nH]c1=O` [SW223023, N-(1-(5-Ethyl-4-methyl-6-oxo-1,6-dihydropyrimidin-2-yl)-3-methyl-1H-pyrazol-5-yl) acetamide], the “competition with SW223022 probe” value in series [1] is recorded as “No apparent competition”.
As to `CCc1c(C)nc(-n2nc(C)cc2NC(=O)c2ccc(F)c(Cl)c2)[nH]c1=O` [SW223041, 3-Chloro-N-(1-(5-ethyl-4-methyl-6-oxo-1,6-dihydropyrimidin-2-yl)-3-methyl-1H-pyrazol-5-yl)-4-fluorobenzamide], the “potency against blood-stage P. falciparum relative to MMV676477” value in series [3] is on record as 3-4 fold. Further, in series [2] (setting [8]), the EC50 was 20 nM. Moreover, the “improvement of potency against L. amazonensis compared to MMV676477” value in series [2] (fold vs MMV676477) is given as “four to five-fold improved potency; also recorded: about four-fold improved activity”. For the same compound, the CC50 at 72 h in the series “Cytotoxicity, alamarBlue” worked out at 2400 nM. Also, in series [1], the “competition with SW223022 probe” value was “almost completely absent”. Moreover, the “potency against L. amazonensis intracellular amastigotes relative to MMV676477” value in series [4] is reported as 3-4 fold.
For `CCc1c(C)nc(-n2nc(C)cc2N)[nH]c1=O` [SW223075, 2-(5-amino-3-methyl-1H-pyrazol-1-yl)-5-ethyl-6-methylpyrimidin-4(3H)-one], the “percentage of L. amazonensis undergoing cell division” value in series [5] was “no effect on cell division”. Also, in series [2] (setting [8]), the EC50 stood at 290 nM. Also, in series [6], the “tubulin intensity over control (DMSO-treated)” value is listed as “did not increase tubulin intensity”.
With `CCc1c(C)nc(-n2nc(C)cc2NC(=O)Nc2ccc(OC)cc2)[nH]c1=O` [SW223102, 1-(1-(5-Ethyl-4-methyl-6-oxo-1,6-dihydropyrimidin-2-yl)-3-methyl-1H-pyrazol-5-yl)-3-(4-methoxyphenyl)urea], the EC50 in series [2] (setting [8]) was 2400 nM. The “competition with SW223022 probe” value in series [1] is recorded as “less-pronounced dimming”.
Consider `C[C@@H]1[C@H](O)[C@@H](C)/C=C/C=C/C=C/C=C/C=C/C=C/C=C/[C@H](O[C@@H]2O[C@H](C)[C@@H](O)[C@H](N)[C@@H]2O)C[C@@H]2O[C@](O)(C[C@@H](O)C[C@@H](O)[C@H](O)CC[C@@H](O)C[C@@H](O)CC(=O)O[C@H]1C)C[C@H](O)[C@H]2C(=O)O` [amphotericin B], for which the half-maximal effective concentration (EC50) in series [2] (Leishmania amazonensis; 72 h, axenic amastigotes; read-out: EC50^72 h against L. amazonensis axenic amastigotes) is 53 nM; in series [4] (Leishmania amazonensis, RAW264.7, 72 h, read-out: EC50^72 h against intracellular L. amazonensis amastigotes), 77 nM. Also, the LD50/EC50 ratio in series [7] (intracellular amastigotes) is 1. The “LD50 72 h” value in series [7] (intracellular washout, 72 h) was 82 nM.
On to `CC(=O)OC[C@H]1O[C@@H]([S-])[C@H](OC(C)=O)[C@@H](OC(C)=O)[C@@H]1OC(C)=O.CCP(CC)CC.[Au+]` [auranofin], for which the “relative fluorescence intensity signal vs vehicle (hit definition)” value in series [2] (setting [9]) is recorded as “hits”.
Still for that read-out and setting: then `CC(C)(C)[C@H]1CC[C@H](CC2=C(O)C(=O)c3ccccc3C2=O)CC1` [buparvaquone], with “hits”; and `C[C@]1(COc2ccc(N3CCC(Oc4ccc(OC(F)(F)F)cc4)CC3)cc2)Cn2cc([N+](=O)[O-])nc2O1` [delamanid], with “hits”.
For the compound `CCCCCCCCCCCCCCCCOP(=O)([O-])OCC[N+](C)(C)C` [miltefosine], the “percentage of L. amazonensis undergoing cell division” value in series [5] is reported as “did not affect L. amazonensis cell division”. Besides, the “tubulin intensity over control (DMSO-treated)” value in series [6] is on record as “did not increase tubulin intensity”.
With `CC(=O)Oc1ccccc1C(=O)Nc1ncc([N+](=O)[O-])s1` [nitazoxanide], the “relative fluorescence intensity signal vs vehicle (hit definition)” value in series [2] (setting [9]) is “hits”.

The values above are taken from patent publication US20240139190A1, “NOVEL ANTIPARASITIC COMPOUNDS AND METHODS” (The Board of Regents of The University of Texas System, priority 2019, published 2024).
